Results as given in US4340595A, “Aminopropanol derivatives of 6-hydroxy-2,3,4,5-tetrahydro-1H-1-benzazepin-2-one and pharmaceutical formulations containing the said compounds” (BASF Aktiengesellschaft, priority 1978, dated 1982).
Where a name gives a salt, the structure may show the parent alone. Read-outs that look alike come from different tables or passages of the source.

Assays:
[1] = system: isoproterenol-induced tachycardia; assay: β-sympatholytic action in cats: inhibition of isoproterenol-induced tachycardia; assay type: in vivo, cat (male and female, mongrels); conditions: for % inhibition of isoproterenol-induced tachycardia, intraduodenal administration / % inhibition of isoproterenol-induced tachycardia, intravenous administration / ED (50-60%) / factor by which the dose required for 50-60% inhibition is lower than the corresponding dose of propranolol, intraduodenal / factor by which the dose required is lowered compared with propranolol, intravenous: cats; for % inhibition of isoproterenol-induced tachycardia, intraduodenal administration: at the mg/kg dose of the same line (E3); for % inhibition of isoproterenol-induced tachycardia, intravenous administration: at the mg/kg dose of the same line (E1); for ED (50-60%): Felis catus, hexobarbital narcosis; for factor by which the dose required for 50-60% inhibition is lower than the corresponding dose of propranolol, intraduodenal: enteral (intraduodenal) administration; for factor by which the dose required for 50-60% inhibition is lower than the corresponding dose of propranolol, intraduodenal / factor by which the dose required is lowered compared with propranolol, intravenous: vs propranolol; for factor by which the dose required is lowered compared with propranolol, intravenous: intravenous administration
Protocol: (§1) The β-sympatholytic action was tested on cats and dogs. The comparative compound used was the conventional β-sympatholytic agent propranolol. The isoproterenol-induced tachycardia model was used for the test.
Isoproterenol (1 μg/kg, administered intravenously) produces increases in heart rate averaging 61±2.4 beats/min. in cats (male and female, mongrels, weighing 1.7 to 4.0 kg) narcotized with hexobarbital (200 mg/kg administered intramuscularly). β-Sympatholytic agents inhibit this tachycardia. Isoproterenol was injected before, and 10 minutes after, the intravenous administration, or 30 minutes after the intraduodenal administration, of the test substances. The doses which inhibit the isoproterenol-induced tachycardia by 50-60% were determined.

[2] = system: isoproterenol-induced tachycardia; assay: β-sympatholytic action in conscious dogs: inhibition of isoproterenol-induced tachycardia; assay type: in vivo, dog; conditions: for ED50: Canis lupus familiaris, 10 min, read-out: ED 50% (dose which inhibits the isoproterenol-induced tachycardia by 50%)
Protocol: as §1
Isoproterenol was administered before and 10 minutes after the intravenous administration of the test substances.

[3] = acute toxicity, intraperitoneal administration to mice; design: species or system mouse (NMRI, female); conditions: mouse, in vivo, ip, Probit analysis
[4] = 10 min, intravenous, isoproterenol 1 μg/kg i.v. 10 minutes after test substance, read-out: dose inhibiting isoproterenol-induced tachycardia by 50-60%, intravenous administration
[5] = 0.5 h, intraduodenal, isoproterenol 1 μg/kg i.v. 30 minutes after test substance, read-out: dose inhibiting isoproterenol-induced tachycardia by 50-60%, intraduodenal administration

Row | SMILES | % inhibition of isoproterenol-induced tachycardia, intraduodenal administration ([1]; intraduodenal) | % inhibition of isoproterenol-induced tachycardia, intravenous administration ([1]; intravenous) | ED50 ([2]; iv) | increase in heart rate produced by isoproterenol ([1]; cats narcotized with hexobarbital, 1 μg/kg intravenously) | increase in heart rate caused by isoproterenol ([2]; conscious dogs, 1 μg/kg intravenously) | ED (50-60%) [1, 4] | ED (50-60%) [1, 5] | factor by which the dose required for 50-60% inhibition is lower than the corresponding dose of propranolol, intraduodenal [1] | factor by which the dose required is lowered compared with propranolol, intravenous [1] | ED50 ([2]; conscious dogs, intravenous, isoproterenol 1 μg/kg i.v.) | times as active as propranolol (ED 50%) ([2]; conscious dogs, intravenous, vs propranolol) | LD50 at 24 h [3]
1 | CC(C)NCC(O)COc1cccc2ccccc12 (centres unmarked) [Propranolol, reference compound] | 57% | 52% | 0.1 mg/kg | – | – | – | – | – | – | – | – | –
2 | CC(C)NCC(O)c1ccc(O)c(O)c1 (centres unmarked) [Isoproterenol, reference compound] | – | – | – | 61±2.4 beats/min. | about 100 beats/min. | – | – | – | – | – | – | –
3 | CC(C)(C)NCC(O)COc1cccc2c1CCCC(=O)N2 (centres unmarked) [Example 2, 6-(2-hydroxy-3-tert.-butylaminopropoxy)-2,3,4,5-tetrahydro-1H-1-benzazepin-2-one hydrochloride] | 52% | 57% | – | – | – | 0.0215 mg/kg | 0.215 mg/kg | 4.7 | 4.7 | 0.0043 mg/kg | 24 times | 237 mg/kg
4 | CC(C)NCC(O)COc1cccc2c1CCCC(=O)N2 (centres unmarked) [Example 1, 6-(2-hydroxy-3-isopropylaminopropoxy)-2,3,4,5-tetrahydro-1H-1-benzazepin-2-one] | 56% | 59% | – | – | – | 0.215 mg/kg | 0.464 mg/kg | 2 | 2 | – | – | –
